Measured values reported in patent publication US8748624B2, “Picolinamido-propanoic acid derivatives useful as glucagon receptor antagonists” (Janssen Pharmaceutica NV, priority 2011, dated 2014).

molecular target: human GCGR (Homo sapiens (Human), UniProt P47871); assay: Cellular functional assay, cAMP readout (glucagon-stimulated cAMP in HEK293 cells expressing human GCGR); assay type: cell-based; settings: hGluc-1 HEK cells, LANCE TR-FRET, IC50 converted to Ki, average if tested more than once
Method: IC50 Values in Cellular Functional Assays: cAMP Readout
Full-length human GCGR (Accession Number: NM000160) subcloned into pcDNA3.1 was stably transfected into HEK293 cells (hGluc-1 HEK) and maintained under G418 selection (500 μg/mL). Cell cultures were maintained in DMEM/F12 media supplemented with 10% FBS and 1% GlutaMax. Glucagon stimulated cAMP was quantified using LANCE technology as per manufacturer instructions. On the day of the experiment, spent media was removed and cells were washed with Hank's Buffered Saline solution (HBSS) and cells were harvested with non-enzymatic cell dissociation solution, then washed once with HBSS. Cells were re-suspended in stimulation buffer at a concentration of 0.83×10^6 cells/ml and cAMP detection antibody was added. 6 μl/well of this solution was then dispensed in a 384 well plate (cell density 5000 cells/well). Test compound was serially diluted in DMSO and 50 nl were dispensed on top of the cell solution and allowed to incubate for 30 minutes. 6 μl of a 2× glucagon solution (final concentration in assay […]) was then added and the reaction was terminated after 5 minutes with the addition of detection mix. The mixture was incubated, protected from light for 1.5 h. cAMP levels were quantified by TR-FRET in an EnVision instrument against a known standard. IC50's were generated by using a non-linear regression macro driven in Excel and converted to K, values.

Sequence of human GCGR (P47871 26-477): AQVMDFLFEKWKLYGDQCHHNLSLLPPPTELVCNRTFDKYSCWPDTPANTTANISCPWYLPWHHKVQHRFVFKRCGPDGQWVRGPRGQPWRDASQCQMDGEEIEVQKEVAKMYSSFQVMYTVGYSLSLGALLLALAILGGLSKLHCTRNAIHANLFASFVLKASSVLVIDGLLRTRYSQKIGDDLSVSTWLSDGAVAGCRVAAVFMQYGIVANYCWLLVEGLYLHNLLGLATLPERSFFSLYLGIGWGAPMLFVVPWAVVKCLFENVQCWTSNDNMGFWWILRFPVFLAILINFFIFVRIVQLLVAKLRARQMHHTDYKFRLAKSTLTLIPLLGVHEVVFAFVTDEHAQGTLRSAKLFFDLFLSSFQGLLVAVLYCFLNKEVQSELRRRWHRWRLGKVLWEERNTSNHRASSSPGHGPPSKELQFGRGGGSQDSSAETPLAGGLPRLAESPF

| Compound | Ki [µM] |
| --- | --- |
| COc1ccc(CNc2ccc(-c3ccc(Cl)cc3)cc2)c(-c2ccc(C(=O)NCCC(=O)O)nc2)c1 [Compound 45, 3-(5-(2-(((4′-chloro-[1,1′-biphenyl]-4-yl)amino)methyl)-5-methoxyphenyl)picolinamido)propanoic acid] | > 20 |
| N#Cc1cc(NCc2ccc(Cl)cc2-c2ccc(C(=O)NCCC(=O)O)nc2)ccc1-c1ccc(Cl)c(C(F)(F)F)c1 [Compound 98, 3-(5-(5-chloro-2-(((4′-chloro-2-cyano-3′-(trifluoromethyl)-[1,1′-biphenyl]-4-yl)amino)methyl)phenyl)picolinamido)propanoic acid] | 0.195 |
| O=C(O)CCNC(=O)c1ccc(-c2cc(C(F)(F)F)cc(C(F)(F)F)c2CNc2ccc(-c3c(Cl)cccc3Cl)cc2)cn1 [Compound 85, 3-(5-(2-(((2′,6′-dichloro-[1,1′-biphenyl]-4-yl)amino)methyl)-3,5-bis(trifluoromethyl)phenyl)picolinamido)propanoic acid] | 0.0324 |
| O=C(O)CCNC(=O)c1ccc(-c2cc(C(F)(F)F)ccc2CNc2ccc(-c3ccc(Cl)cc3C(F)(F)F)cc2)cn1 [Compound 25] | 0.22 |
| N#Cc1cc(NCc2ccc(Cl)cc2-c2ccc(C(=O)NCCC(=O)O)nc2)ccc1-c1cccc(C(F)(F)F)c1Cl [Compound 101, 3-(5-(5-chloro-2-(((2′-chloro-2-cyano-3′-(trifluoromethyl)-[1,1′-biphenyl]-4-yl)amino)methyl)phenyl)picolinamido)propanoic acid] | 0.095 |
| COc1ccc(CNc2ccc(-c3ccc(Cl)cc3Cl)cc2)c(-c2ccc(C(=O)NCCC(=O)O)nc2)c1 [Compound 46, 3-(5-(2-(((2′,4′-dichloro-[1,1′-biphenyl]-4-yl)amino)methyl)-5-methoxyphenyl)picolinamido)propanoic acid] | > 20 |
| COc1ccc(CNc2ccc(-c3ccc(C(F)(F)F)cc3)cc2)c(-c2ccc(C(=O)NCCC(=O)O)nc2)c1 [Compound 47, 3-(5-(5-methoxy-2-(((4′-(trifluoromethyl)-[1,1′-biphenyl]-4-yl)amino)methyl)phenyl)picolinamido)propanoic acid] | > 20 |
| O=C(O)CCNC(=O)c1ccc(-c2cc(C(F)(F)F)cc(C(F)(F)F)c2CNc2ccc(-c3ccc(Cl)cc3Cl)cc2)cn1 [Compound 87, 3-(5-(2-(((2′,4′-dichloro-[1,1′-biphenyl]-4-yl)amino)methyl)-3,5-bis(trifluoromethyl)phenyl)picolinamido)propanoic acid] | 0.0173 |
| COc1ccc(CNc2ccc(-c3ccc(C(C)(C)C)cc3)cc2)c(-c2ccc(C(=O)NCCC(=O)O)nc2)c1 [Compound 49, 3-(5-(2-(((4′-(tert-butyl)-[1,1′-biphenyl]-4-yl)amino)methyl)-5-methoxyphenyl)picolinamido)propanoic acid] | > 20 |
| Cc1cc(Cl)ccc1-c1ccc(NCc2c(-c3ccc(C(=O)NCCC(=O)O)nc3)cc(C(F)(F)F)cc2C(F)(F)F)cc1 [Compound 81, 3-(5-(2-(((4′-chloro-2′-methyl-[1,1′-biphenyl]-4-yl)amino)methyl)-3,5-bis(trifluoromethyl)phenyl)picolinamido)propanoic acid] | 0.01 |
| COc1ccc(CNc2ccc(-c3cccc(OC(F)(F)F)c3)cc2)c(-c2ccc(C(=O)NCCC(=O)O)nc2)c1 [Compound 50, 3-(5-(5-methoxy-2-(((3′-(trifluoromethoxy)-[1,1′-biphenyl]-4-yl)amino)methyl)phenyl)picolinamido)propanoic acid] | > 20 |
| CC(C)(C)c1ccc(-c2ccc(NCc3ccc(C(F)(F)F)cc3-c3ccc(C(=O)NCCC(=O)O)nc3)cc2C(F)(F)F)cc1 [Compound 124, 3-(5-(2-(((4′-(tert-butyl)-2-(trifluoromethyl)-[1,1′-biphenyl]-4-yl)amino)methyl)-5-(trifluoromethyl)phenyl)picolinamido)propanoic acid] | 0.285 |
| O=C(O)CCNC(=O)c1ccc(-c2cc(C(F)(F)F)ccc2CNc2ccc(-c3ccc(F)c(C(F)(F)F)c3)c(C(F)(F)F)c2)cn1 [Compound 121, 3-(5-(2-(((4′-fluoro-2,3′-bis(trifluoromethyl)-[1,1′-biphenyl]-4-yl)amino)methyl)-5-(trifluoromethyl)phenyl)picolinamido)propanoic acid] | 0.1 |
| N#Cc1cc(NCc2ccc(Cl)cc2-c2ccc(C(=O)NCCC(=O)O)nc2)ccc1-c1ccc(F)c(C(F)(F)F)c1 [Compound 100, 3-(5-(5-chloro-2-(((2-cyano-4′-fluoro-3′-(trifluoromethyl)-[1,1′-biphenyl]-4-yl)amino)methyl)phenyl)picolinamido)propanoic acid] | 0.135 |

Continued, values first:

| Ki [µM] | Compound |
| --- | --- |
| > 5.2 | O=C(O)CCNC(=O)c1ccc(-c2cc(C(F)(F)F)ccc2CNc2ccc(-c3ccc(Cl)cc3F)c(C(F)(F)F)c2)cn1 [Compound 126, 3-(5-(2-(((4′-chloro-2′-fluoro-2-(trifluoromethyl)-[1,1′-biphenyl]-4-yl)amino)methyl)-5-(trifluoromethyl)phenyl)picolinamido)propanoic acid] |
| 0.0082 | Cc1cc(C(F)(F)F)ccc1-c1ccc(NCc2c(C)cc(C(F)(F)F)cc2-c2ccc(C(=O)NCCC(=O)O)nc2)cc1Cl [Compound 166, 3-(5-(2-(((2-chloro-2′-methyl-4′-(trifluoromethyl)-[1,1′-biphenyl]-4-yl)amino)methyl)-3-methyl-5-(trifluoromethyl)phenyl)picolinamido)propanoic acid] |
| 0.0196 | Cc1cc(C(F)(F)F)ccc1-c1ccc(NCc2c(-c3ccccc3)cc(C(F)(F)F)cc2-c2ccc(C(=O)NCCC(=O)O)nc2)cc1Cl [Compound 179, 3-(5-(2-(((2-chloro-2′-methyl-4′-(trifluoromethyl)-[1,1′-biphenyl]-4-yl)amino)methyl)-5-(trifluoromethyl)-[1,1′-biphenyl]-3-yl)picolinamido)propanoic acid] |
| 0.0108 | Cc1cc(C(F)(F)F)ccc1-c1ccc(NCc2c(-c3ccc(C(=O)NCCC(=O)O)nc3)cc(C(F)(F)F)cc2C(C)C)cc1Cl [Compound 167] |
| 0.0053 | Cc1cc(C(F)(F)F)ccc1-c1ccc(NCc2c(-c3ccc(C(=O)NCCC(=O)O)nc3)cc(C(F)(F)F)cc2C2CC2)cc1Cl [Compound 177, 3-(5-(2-(((2-chloro-2′-methyl-4′-(trifluoromethyl)-[1,1′-biphenyl]-4-yl)amino)methyl)-3-cyclopropyl-5-(trifluoromethyl)phenyl)picolinamido)propanoic acid] |
| 0.0458 | O=C(O)CCNC(=O)c1ccc(-c2cc(C(F)(F)F)ccc2CNc2ccc(-c3ccc(C(F)(F)F)cc3Cl)c(C(F)(F)F)c2)cn1 [Compound 128, 3-(5-(2-(((2′-chloro-2,4′-bis(trifluoromethyl)-[1,1′-biphenyl]-4-yl)amino)methyl)-5-(trifluoromethyl)phenyl)picolinamido)propanoic acid] |
| 0.0387 | COc1cc(C(F)(F)F)cc(-c2ccc(C(=O)NCCC(=O)O)nc2)c1CNc1ccc(-c2ccc(C(F)(F)F)cc2Cl)cc1 [Compound 161, 3-(5-(2-(((2′-chloro-4′-(trifluoromethyl)-[1,1′-biphenyl]-4-yl)amino)methyl)-3-methoxy-5-(trifluoromethyl)phenyl)picolinamido)propanoic acid] |
| 0.0063 | Cc1cc(Cl)ccc1-c1ccc(NCc2c(-c3ccc(C(=O)NCCC(=O)O)nc3)cc(C(F)(F)F)cc2C2CC2)cc1Cl [Compound 178, 3-(5-(3-cyclopropyl-2-(((2,4′-dichloro-2′-methyl-[1,1′-biphenyl]-4-yl)amino)methyl)-5-(trifluoromethyl)phenyl)picolinamido)propanoic acid] |
| 0.0612 | O=C(O)CCNC(=O)c1ccc(-c2cc(C(F)(F)F)cc(O)c2CNc2ccc(-c3ccc(Cl)cc3)c(Cl)c2)cn1 [Compound 164, 3-(5-(2-(((2,4′-dichloro-[1,1′-biphenyl]-4-yl)amino)methyl)-3-hydroxy-5-(trifluoromethyl)phenyl)picolinamido)propanoic acid] |
| 0.0144 | Cc1cc(C(F)(F)F)cc(-c2ccc(C(=O)NCCC(=O)O)nc2)c1CNc1ccc(-c2ccc(C(F)(F)F)cc2)c(Cl)c1 [Compound 163] |
| 0.0469 | COc1cc(C(F)(F)F)cc(-c2ccc(C(=O)NCCC(=O)O)nc2)c1CNc1ccc(-c2ccc(Cl)cc2)c(Cl)c1 [Compound 162, 3-(5-(2-(((2,4′-dichloro-[1,1′-biphenyl]-4-yl)amino)methyl)-3-methoxy-5-(trifluoromethyl)phenyl)picolinamido)propanoic acid] |
| 0.65 | COc1cc(C(F)(F)F)cc(-c2ccc(C(=O)NCCC(=O)O)nc2)c1CNc1cc(Cl)c(-c2ccc(Cl)cc2)c(Cl)c1 [Compound 160, 3-(5-(3-methoxy-2-(((2,4′,6-trichloro-[1,1′-biphenyl]-4-yl)amino)methyl)-5-(trifluoromethyl)phenyl)picolinamido)propanoic acid] |
| 0.205 | O=C(O)CCNC(=O)c1ccc(-c2cc(C(F)(F)F)ccc2CNc2ccc(-c3ccc(F)cc3F)c(C(F)(F)F)c2)cn1 [Compound 125, 3-(5-(2-(((2′,4′-difluoro-2-(trifluoromethyl)-[1,1′-biphenyl]-4-yl)amino)methyl)-5-(trifluoromethyl)phenyl)picolinamido)propanoic acid] |
